Source: US7329670B1, “Inhibition of RAF kinase using aryl and heteroaryl substituted heterocyclic ureas” (Bayer Pharmaceuticals Corporation, priority 1997, dated 2008)

melting point	SMILES
195 to 198 °C	CC(C)(C)c1cc(NC(=O)Nc2cccc(Cl)c2Cl)c(-c2ccncc2)o1 [Entry 40, N-(2-(4-Pyridinyl)-5-tert-butyl-3-furyl)-N′-(2,3-dichlorophenyl)urea]
171 to 173 °C	CC(C)(C)c1cc(NC(=O)Nc2cccc(Cl)c2Cl)c(-c2ccccc2)s1 [Entry 41, N-(2-Phenyl-5-tert-butyl-3-thienyl)-N′-(2,3-dichlorophenyl)urea]
